According to patent US20230263822A1, “MODULATION OF FACTOR 11 EXPRESSION” (Ionis Pharmaceuticals, Inc., priority 2008, published 2023):

Assays:
human Factor 11 mRNA = test: Dose-dependent inhibition of human Factor 11 in HepB3 cells, electroporation (Example 7); format: cell-based; details: for percent inhibition of human Factor 11 mRNA relative to untreated control cells: ~16 hours
Method: The gapmers were also transfected via electroporation and their dose dependent inhibition of human Factor 11 mRNA was measured. Cells were plated at a density of 20,000 cells per well and transfected via electroporation with 41.15 nM, 123.457 nM, 370.37 nM, 1111.11 nM, 3333.33 nM, and 10,000 nM concentrations of antisense oligonucleotide, as specified in Table 15. After a treatment period of approximately 16 hours, RNA was isolated from the cells and human Factor 11 mRNA levels were measured by quantitative real-time PCR. Human Factor 11 primer probe set RTS 2966 was used to measure mRNA levels. Factor 11 mRNA levels were adjusted according to total RNA content, as measured by RIBOGREEN. Results are presented as percent inhibition of human Factor 11, relative to untreated control cells.

[1] = parameters: species or system CD1 mice; details: mouse, in vivo
Method: Five mice from each group were sacrificed 3 days, 28 days and 56 days following the final dose. Livers were harvested for analysis.
The concentration of the full-length oligonucleotide as well as the total oligonucleotide concentration (including the degraded form) was measured. The method used is a modification of previously published methods (Leeds et al., 1996; Geary et al., 1999) which consist of a phenol-chloroform (liquid-liquid) extraction followed by a solid phase extraction. An internal standard (ISIS 355868, a 27-mer 2′-O-methoxyethyl modified phosphorothioate oligonucleotide, […], designated herein as SEQ ID NO: 270) was added prior to extraction. […] Half-lives were then calculated using WinNonlin software ([…]).
The results are presented in Tables 68 and 69, expressed as μg/g liver tissue.

Substance | IC50 (human Factor 11 mRNA) [nM] | percent inhibition of human Factor 11 mRNA relative to untreated control cells (human Factor 11 mRNA; 41.15 nM) [%] | percent inhibition of human Factor 11 mRNA relative to untreated control cells (human Factor 11 mRNA; 123.457 nM) [%] | percent inhibition of human Factor 11 mRNA relative to untreated control cells (human Factor 11 mRNA; 370.37 nM) [%] | percent inhibition of human Factor 11 mRNA relative to untreated control cells (human Factor 11 mRNA; 1111.11 nM) [%] | percent inhibition of human Factor 11 mRNA relative to untreated control cells (human Factor 11 mRNA; 3333.33 nM) [%] | percent inhibition of human Factor 11 mRNA relative to untreated control cells (human Factor 11 mRNA; 10000 nM) [%] | Half-Life in the liver [1] [days]
416826 (antisense ATGCCCTTCATGTCTAGGTC; 5-10-5 gapmer, further chemistry not given here) [compound 416826] | 780 | 0 | 0 | 34 | 61 | 87 | 92 | 13
416999 (antisense GCACAGTTTCTGGCAGGCCT; 2-13-5 gapmer chemistry, further chemistry not given here) [compound 416999] | 160 | 31 | 45 | 62 | 78 | 94 | 97 | 9
416925 (antisense GGTGCACAGTTTCTGGCAGG; 3-14-3 gapmer chemistry, further chemistry not given here) [compound 416925] | 200 | 27 | 39 | 50 | 73 | 88 | 96 | 12
416838 (antisense GCAACCGGGATGATGAGTGC; 5-10-5 gapmer, further chemistry not given here) [compound 416838] | 1200 | 12 | 9 | 28 | 40 | 77 | 88 | 13
417002 (antisense GGTGCACAGTTTCTGGCAGG; 2-13-5 gapmer chemistry, further chemistry not given here) [compound 417002] | 1200 | 19 | 0 | 31 | 47 | 86 | 93 | 11
416864 (antisense GGCAGCGGACGGCATTGGTG; 5-10-5 gapmer, further chemistry not given here) [compound 416864] | 2200 | 4 | 3 | 6 | 35 | 75 | 87 | 13
416858 (antisense ACGGCATTGGTGCACAGTTT; 5-10-5 gapmer, further chemistry not given here) [compound 416858] | 300 | 23 | 45 | 52 | 64 | 87 | 92 | 26
